In series [1] the test system is human platelets. The experiment in a line: PS exposure (annexin-V binding) by flow cytometry. In kind it is cell-based. Conditions: washed human platelets, 10 μM, 37 °C, time course up to 3 h, flow cytometry (Fig. 5A).
Method: Platelet activation markers (% positive platelets) were investigated following 1 h of peptide treatment. […] CD63 binding.
1.1 Preparation of washed platelet suspension
Human blood was collected from healthy volunteers, who had not taken medication for two weeks,
following informed consent in accordance with the Declaration of Helsinki. Blood was collected into 11 mM sodium citrate and washed platelets were prepared as follows: Platelet-rich plasma (PRP) was obtained by centrifugation (240 g, 15 min). Prostaglandin E1 (PGE1, 2 µM) was added to prevent premature platelet activation, and the plasma was centrifuged at 640 g for 15 min. […]
Treated washed platelet suspensions (1x10^7/mL) were analysed by flow cytometry using a C6 Accuri Flow Cytometer (Beckton Dickinson, UK), in the presence or absence of Annexin-V-PE (BD Biosciences, UK), anti-PAC-1 (BD Biosciences), anti-CD62 (BD Pharmingen, UK), or anti-CD-63P (BD Pharmingen). […]
PS exposure was assessed after incubation of 50 µL of washed platelet suspensions at 37 °C in 445 µL of […]
under the protection from direct light and analysed by flow cytometry.
Platelet activation markers (PAC -1, CD62P and CD63 binding) were assessed after incubation of 3 µL of […]
antibody and the peptide (1.1 μL of 1 mM stock solution in DMSO) . The suspensions were analysed by […]
The test system of series [2] is human platelets. To be noted: PRP, 10 μM FITC-labelled peptide, 15, 30, 60 minutes, flow cytometry, average of two independent repeats (Fig. SI_2b). An excerpt: (1 picture or pasted object on this page, not shown here)
For series [3], the system named is human platelets. The experiment in a line: Confocal microscopy of platelets incubated with fluorescently labelled peptides. Conditions: live washed platelets, 10 µM FITC-labelled peptide, 15 minutes incubation, confocal imaging (Fig. SI_5). In kind it is cell-based. Here is the method:
Fig. 3 A functionalised staple is required to induce peptide uptake into platelets. (A) Platelets were incubated with TAMRA labelled model peptides (10 μM final concentration) for 1 h (white), 2 h (grey) and 3 h incubation (black) and the percentage positive for TAMRA fluorescence was quantified using flow cytometry. (B) Peptides showing high uptake within the first hour were analysed during first 5 min following treatment. Changes in platelet-associated fluorescence were recorded in real time using flow cytometry. Unlabelled platelets were recorded for 30 s prior to addition of the given peptide. (C) Platelets were incubated with 10 μM of TAMRA-model peptides for 1 h prior to imaging by confocal microscopy. ^‡ […]
Peptide uptake experiments of the most permeable model peptides 5, 13–16 were repeated in the presence of platelet-rich plasma (PRP) to ensure realistic conditions (ESI, Fig. SI_2a ^†).
Figure SI_3. […]
Peptides were used to a final concentration of 10 µM. […] Images of TAMRA-labelled model peptide stained platelets were acquired after 1 h incubation1 using with excitation at 565 nm and emission was detected with a 560 -615 nm BP filter. […]
were acquired after 15 minutes incubation1 using excitation at 488 nm and emission was detected with […]

The source of these data is PMC5969508, “Stapled peptides as a new technology to investigate protein–protein interactions in human platelets” (Chemical Science, 2018).

SMILES strings stand for the structures. “Also recorded” adds a separate entry of the source.

As to `CC[C@H](C)[C@H](NC(C)=O)C(=O)N[C@@H](Cc1c[nH]c2ccccc12)C(=O)N[C@H](C(=O)N[C@@H](C)C(=O)N[C@@H](CCC(N)=O)C(=O)N[C@@H](CCC(=O)O)C(=O)N[C@@H](CC(C)C)C(=O)N[C@@H](CCCNC(=N)N)C(=O)N[C@H]1CCCn2cc(nn2)CCCc2cn(nn2)CCC[C@@H](C(=O)N[C@@H](Cc2ccccc2)C(=O)N[C@@H](CC(N)=O)C(=O)N[C@@H](C)C(=O)N[C@@H](Cc2ccc(O)cc2)C(=O)N[C@@H](Cc2ccc(O)cc2)C(=O)N[C@@H](C)C(=O)N[C@@H](CCCNC(=N)N)C(=O)N[C@@H](CCCNC(=N)N)C(N)=O)NC(=O)[C@H](CC(=O)O)NC(=O)CNC(=O)[C@H]([C@@H](C)CC)NC1=O)[C@@H](C)CC` [peptide 18], the “PS exposure / annexin-V binding (in words)” value in the series on human platelets [1] is “No annexin-V binding was observed”. Besides, the “platelet fluorescence of FITC-labelled Bim BH3 peptide in plasma” value with human platelets [2] was “high platelet fluorescence in plasma”. The “localisation / platelet permeability of FITC-labelled Bim BH3 peptide” value in the series on human platelets [3] is reported as “poor membrane permeability; also recorded: forming aggregates outside the platelet cytosol; also recorded: form fluorescent aggregates outside the platelets”.
